Values quoted from earlier work as cited in patent publication US20050003341A1, “Drug discovery assays based on the biology of atherosclerosis, cancer, and alopecia” (priority 2003, published 2005).
Read-outs that look alike come from different tables or passages of the source.

Legend:
[1] = system: ERK
[2] = system: TF; conditions: for Cu^+2 induced procoagulant activity: probucol 20, vitamin E 50, BHT 50, U74389G 20 μmol/L
[3] = system: ACE
[4] = system: ACE; conditions: 0.5 mg/kg/day, p<0.05
[5] = system: TF
[6] = system: AT1-receptor; conditions: 25 mg/kg/day
[7] = system: apo(a) transgenic mice; conditions: 15 μg, 12 weeks
[8] = system: cell attachment to fibronectin; conditions: for cell attachment to coated plates: six ocular melanoma cell lines (Mac Neil 1994A)
[9] = system: apoE(−/−) mice; conditions: aortic sinus, 48 hours post injection
[10] = system: TF; conditions: cultured monocytes
[11] = system: NF-κB
[12] = system: fibronectin
[13] = system: NF-κB; remark: listed apart in the source
[14] = system: TF; conditions: THP-1
[15] = system: leukocytes; conditions: 0.1 and 1 mM, similar in vitro assay
[16] = system: TF; conditions: Western blotting; untreated smokers 2.3±0.7
[17] = system: leukocytes; conditions: 5-20 mg/kg/day, oral
[18] = system: AR gene; conditions: 10^−8 M
[19] = system: U937; conditions: p<0.05
[20] = system: CD18; conditions: neutrophils, 10^−8 M for 10 min
[21] = system: isolated hair follicles; conditions: for scalp hair growth: Philpott 1996
[22] = system: TF; conditions: cells incubated with AGE-alb
[23] = system: VCAM-1; conditions: 36 dyn/cm^2; 7.0-13.99 minutes
[24] = system: U251.3 glioma cells; conditions: 3-100 μg/ml, dose dependently
[25] = system: CD40; conditions: concentration- and time-dependent
[26] = Peterziel 1999, dependent on presence of AR
[27] = a variety of cells, cited studies

CC(C)(O)C(=O)Nc1ccc([N+](=O)[O-])c(C(F)(F)F)c1 [hydroxyflutamide]
Elk-1 transcription activity [1, 26]: *The study also showed an increase in Elk-1 transcription activity following treatment with the androgen DHT, or the antiandrogens casodex and hydroxyflutamide. ERK phosphorylation activates Elk-1, which is a member of the ETS family.

vitamin E
LPS induced TF expression [2]: inhibited | Cu^+2 induced procoagulant activity [2]: inhibited

CC(O)(CS(=O)(=O)c1ccc(F)cc1)C(=O)Nc1ccc(C#N)c(C(F)(F)F)c1 (stereo not shown) [casodex]
Elk-1 transcription activity [1, 26]: *The study also showed an increase in Elk-1 transcription activity following treatment with the androgen DHT, or the antiandrogens casodex and hydroxyflutamide. ERK phosphorylation activates Elk-1, which is a member of the ETS family.

CNc1ccc2oc(C[C@H]3O[C@@]4(CC[C@H]3C)O[C@H]([C@H](C)C(=O)c3ccc[nH]3)[C@H](C)C[C@H]4C)nc2c1C(=O)O [A 23187]
ERK phosphorylation [1, 27]: increase

CC(C)(Sc1cc(C(C)(C)C)c(O)c(C(C)(C)C)c1)Sc1cc(C(C)(C)C)c(O)c(C(C)(C)C)c1 [probucol]
Cu^+2 induced procoagulant activity [2]: inhibited

CCCCCCCCCCCCCC(=O)O[C@@H]1[C@@H](C)[C@@]2(O)[C@@H](C=C(CO)C[C@]3(O)C(=O)C(C)=C[C@@H]23)[C@@H]2C(C)(C)[C@]12OC(C)=O [TPA, phorbol 12-myristate 13-acetate]
ERK phosphorylation [1, 27]: increase

C[C@H](CSC(=O)c1ccccc1)C(=O)N1C[C@@H](Sc2ccccc2)C[C@H]1C(=O)O [zofenopril]
macrophage-derived foam cells staining in the intima ([3]; 1 mg/kg/day): significant decrease | native LDL staining in the intima ([3]; 1 mg/kg/day): significant decrease | total lesion area compared to placebo ([3]; zofenopril 0.05 or 1, captopril 5, enalapril 0.5 mg/kg/day): significantly decreased | decrease in aortic corrected cumulative lesion area [4]: 34% | decrease in common carotid corrected cumulative lesion area [4]: 39%

Cc1cc(C(C)(C)C)c(O)c(C(C)(C)C)c1 [BHT]
Cu^+2 induced procoagulant activity [2]: inhibited

CC1=C(/C=C/C(C)=C/C=C/C(C)=C/C(=O)O)C(C)(C)CCC1 [ATRA, all-trans retinoic acid]
rate of TF transcription, nuclear run-on ([5]; LPS 10 μg/ml 1 hour, ATRA 10^−5 mol/L 30 minutes before LPS): decreased TF transcription | TF mRNA ([5]; THP-1, 30 minutes, 10^−5 mol/L): decrease | LUC activity relative to untreated cells ([5]; pTF(−2106)LUC transfected THP-1, 30 minutes, 10^−5 mol/L): no decrease

CCCCc1cc(C(=O)OC)cc(=O)n1Cc1ccc(-c2ccccc2-c2nnn[nH]2)cc1F [Bay 10-6734]
fat-stained area in the aorta ([6]; controls 28.6±7.5%): 5.3±1.4% | % of macrophage stained area/total plaque cross sectional area ([6]; controls 58.8±15%): 1±0.2%

CC/C(=C(\c1ccccc1)c1ccc(OCCN(C)C)cc1)c1ccccc1 [tamoxifen]
decrease in area of focal apo(a) accumulation [7]: 97% | decrease in average level of apo(a) in the vessel wall [7]: 69% | decrease in lesion area [7]: 92% | decrease in number of lipid lesions [7]: 80% | cell attachment to ECM, fibronectin, collagen type I or IV ([8]; ZR75-1 breast cancer cells (Millon 1989)): decreased attachment | cell attachment to fibronectin ([8]; retinal pigment epithelial (RPE) cells (Wagner 1995)): decreased attachment | cell attachment to coated plates [8]: significant inhibition

CCCCCCCCCCCCCCCC(=O)OC[C@H](COP(=O)([O-])OCC[N+](C)(C)C)OC(=O)CCCCCCCCCCCCCCC [DPPC, dipalmitoylphosphatidylcholine]
macrophage content ([9]; saline 10.4±3.4): 9.3±5.8 % of plaque area | lipid content ([9]; saline 19.6±6.3): 18.1±4.7 % of plaque area

CC[C@H]1CN2CCc3cc(OC)c(OC)cc3[C@@H]2C[C@@H]1C[C@H]1NCCc2cc(OC)c(OC)cc21 [emetine]
c-mos expression and ERK phosphorylation ([1]; starfish eggs): inhibition

angiotensin II: angiotensin II (DRVYIHPF; Angiotensin-2; UniProt P01019 25-32, looked up)
TF antigen and mRNA [10]: dose-depended increase | NF-κB activation ([11]; cultured monocytes and VSMC): increased

C[C@]12CCC(=O)C[C@@H]1CC[C@@H]1[C@@H]2CC[C@]2(C)[C@@H](O)CC[C@@H]12 [DHT, Dihydrotestosterone]
ERK phosphorylation [1]: **The study reports no increase in ERK phosphorylation in LNCaP or PC-3 cells following treatment with DHT. | Elk-1 transcription activity [1]: *The study also showed an increase in Elk-1 transcription activity following treatment with the androgen DHT, or the antiandrogens casodex and hydroxyflutamide. ERK phosphorylation activates Elk-1, which is a member of the ETS family.

C[C@]12C=CC(=O)C=C1CC[C@@H]1C2=CC[C@]2(C)[C@@H](C(=O)CN3CCN(c4cc(N5CCCC5)nc(N5CCCC5)n4)CC3)CC[C@@H]12.O=C(O)/C=C\C(=O)O [U74389G]
Cu^+2 induced procoagulant activity [2]: inhibited

NCCCCCC(=O)O [ε-ACA]
Lp(a) binding to fibronectin [12]: not effective | plasminogen binding to fibronectin [12]: inhibited

CCOC(=O)[C@H](CCc1ccccc1)N[C@@H](C)C(=O)N1Cc2ccccc2C[C@H]1C(=O)O [quinapril]
NF-κB activity in atherosclerotic vessels ([11]; rabbit femoral arteries): decreased

O=C(O)C[C@H](O)C[C@H](O)/C=C/c1c(C2CC2)nc2ccccc2c1-c1ccc(F)cc1 [pitavastatin]
NF-κB activation ([13]; human kidney 293 T-cells): inhibited

CC(=O)Oc1ccccc1C(=O)O [aspirin, Acetylsalicylic Acid]
LPS-induced translocation of c-Rel/p65 [14]: inhibited | migration of human lymphocytes [15]: stimulated migration | increase in TF concentration compared to non-smoker mice [16]: 1.3±0.17 fold | increase in leukocyte migration relative to control values [17]: 20-70%

C[C@H](CCC(=O)O)C[C@H](C)C[C@H](C)C(=O)/C=C(\O)[C@H](C)C[C@H](C)C/C=C/[C@@H](C)[C@@H](O)[C@@H](C)[C@@H](O)C[C@@H]1CC[C@@](C)([C@H]2CC[C@@](C)([C@@H](C)O)O2)O1 [ionomycin]
cell attachment to coated plates [8]: Significant inhibition

apo(a): apolipoprotein(a)
plasminogen binding to fibronectin [12]: completely abolished

C[C@]1(O)CC[C@H]2[C@@H]3CCC4=CC(=O)CCC4=C3C=C[C@@]21C [R1881, methyltrienolone]
transcription of the endogenous AR gene, of control levels ([18]; 8 hours): 85% | transcription of the endogenous AR gene, of control levels ([18]; 24 hours): 73%

CC(C)CCC[C@@H](C)[C@H]1CC[C@H]2[C@@H]3C(=O)C=C4C[C@@H](O)CC[C@]4(C)[C@H]3CC[C@]12C [7-ketocholesterol]
GSH content compared to controls [19]: lower GSH content

CSCC[C@H](NC=O)C(=O)N[C@@H](CC(C)C)C(=O)N[C@@H](Cc1ccccc1)C(=O)O [fMLP, N-formylmethionyl-leucyl-phenylalanine]
increase in CD18 surface membrane concentration compared to unstimulated cells [20]: 4 fold

TNFα
scalp hair growth [21]: inhibition | ERK phosphorylation [1, 27]: increase

CC[C@H](C)C(=O)O[C@H]1CCC=C2C=C[C@H](C)[C@H](CC[C@@H]3C[C@@H](O)CC(=O)O3)[C@H]21 [mevastatin]
NF-κB activation ([13]; EC): inhibited

[Cu+2] [Cu^+2]
procoagulant activity ([2]; 10 hours, up to 20 μmol/L, without 8-hydroxyquinoline): no effect | TF mRNA levels ([2]; at 2 hours, relative to basal): 50% | increase in TF mRNA ([2]; at 6 hours): 3.5 fold

CC(=O)N[C@@H](CS)C(=O)O [NAC, N-acetylcysteine]
TF activity [22]: concentration dependent inhibition

MCP-1: a chemokine
average percent of monocyte remaining bound [23]: 46%

estrogen
ERK phosphorylation [1, 27]: increase

TNC: large ECM glycoprotein
migration distance [24]: increased migration distance

IL-1β: interleukin 1β
hair growth ([21]; Hoffmann 1997, 6 days, A 23187 2 μM, TPA 1 μM, IL-1β 100 ng per ml): significantly inhibited hair growth | scalp hair growth [21]: inhibition

B1: IL-1a: interleukin 1α (protein, UniProt P01583 113-271, looked up)
Interleukin-1 alpha: SAPFSFLSNVKYNFMRIIKYEFILNDALNQSIIRANDQYLTAAALHNLDEAVKFDMGAYKSSKDDAKITVILRISKTQLYVTAQDEDQPVLLKEMPEIPKTITGSETNLLFFWETHGTKNYFTSVAHPNLFIATKQDYWVCLAGGPPSITDFQILENQA
scalp hair growth [21]: inhibition

B2: CD40L: ligand of CD40, native or recombinant human (protein, UniProt P29965 113-261, looked up)
CD40 ligand, soluble form: MQKGDQNPQIAAHVISEASSKTTSVLQWAEKGYYTMSNNLVTLENGKQLTVKRQGLYYIYAQVTFCSNREASSQAPFIASLCLKSPGRFERILLRAANTHSSAKPCGQQSIHLGGVFELQPGASVFVNVTDPSQVSHGTGFTSFGLLKL
TF expression on the surface of cultured human vascular SMC [25]: transient increase
